In one series the target is Hsp82 (Saccharomyces cerevisiae, UniProt P02829). Description: Hsp82 ATPase activity, pyruvate kinase/lactate dehydrogenase enzymatic coupling system. It is filed as biochemical. The conditions noted are these: PK/LDH coupled kinetic method, NADH absorbance 340 nm, 1 μM Hsp82, 250 μM ATP, 37° C. The text has this: The formation of ADP due to the ATPase activity of Hsp82 was utilized for developing another method of evaluating the enzymatic activity of this enzyme by the application of an enzymatic coupling system involving pyruvate kinase (PK) and lactate dehydrogenase (LDH). In this spectrophotometric method of the kinetic type, PK catalyses the formation of ATP and pyruvate from phosphoenol-pyruvate (PEP) and ADP produced by HSP82. The pyruvate formed, a substrate of LDH, is then converted to lactate in the presence of NADH. In this case, the decrease in the concentration of NADH, measured from the decrease in absorbance at a wavelength of 340 nm, is proportional to the concentration of ADP produced by HSP82. The test products are incubated in a reaction volume of 100 μl of buffer composed of 100 mM Hepes-NaOH (pH 7.5), 5 mM MgCl2, 1 mM DTT, 150 mM KCl, 0.3 mM NADH, 2.5 mM PEP and 250 μM ATP. This mixture is preincubated at 37° C. for 30 min before adding 3.77 units of LDH and 3.77 units of PK. The reaction is initiated by adding the product to be evaluated, at various concentrations, and Hsp82, at a concentration of 1 μM. Measurement of the enzymatic activity of Hsp82 is then performed continuously in a microplate reader, at 37° C., at a wavelength of 340 nm. The initial rate of the reaction is found by measuring the gradient of the tangent at the origin of the curve that is recorded. The enzymatic activity is expressed in μM of ADP formed per minute. The effect of the various products tested is expressed as percentage inhibition of ATPase activity according to the following code: • A: IC50<1 μM • B: 1 μM<IC50<10 μM • C: 10 μM<IC50<100 μM
Chain of Hsp82 (P02829 whole entry): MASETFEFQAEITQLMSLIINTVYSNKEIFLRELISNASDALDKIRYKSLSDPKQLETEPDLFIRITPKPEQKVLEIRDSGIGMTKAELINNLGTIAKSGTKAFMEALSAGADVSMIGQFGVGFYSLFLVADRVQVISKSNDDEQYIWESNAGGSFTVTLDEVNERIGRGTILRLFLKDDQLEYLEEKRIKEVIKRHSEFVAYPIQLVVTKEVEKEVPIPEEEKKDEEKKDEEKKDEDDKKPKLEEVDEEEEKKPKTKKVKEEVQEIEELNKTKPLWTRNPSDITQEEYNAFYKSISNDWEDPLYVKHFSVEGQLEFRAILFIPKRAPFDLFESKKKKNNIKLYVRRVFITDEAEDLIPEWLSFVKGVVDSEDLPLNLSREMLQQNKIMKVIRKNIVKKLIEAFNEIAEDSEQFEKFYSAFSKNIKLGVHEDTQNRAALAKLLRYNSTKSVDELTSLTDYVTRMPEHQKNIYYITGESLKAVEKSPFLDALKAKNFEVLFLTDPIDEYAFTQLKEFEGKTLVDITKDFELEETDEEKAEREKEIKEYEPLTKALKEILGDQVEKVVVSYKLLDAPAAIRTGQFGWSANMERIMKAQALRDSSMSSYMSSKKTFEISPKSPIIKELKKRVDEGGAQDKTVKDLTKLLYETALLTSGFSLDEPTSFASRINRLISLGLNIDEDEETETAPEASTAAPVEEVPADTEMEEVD

As a reminder, the IC50 is the concentration at which inhibition is half-maximal. For the compound `Nc1ncc(Cl)c(C(=O)NC2c3ccccc3-c3c(-c4ncc[nH]4)cccc32)n1` (racemic) [Example 1, [4-(1H-imidazol-2-yl)-9H-fluoren-9(R,S)-yl]-amide of 2-amino-5-chloro-pyrimidine-4-carboxylic acid], the 50% inhibitory concentration (IC50) on Hsp82 lay in the range of 1000 to 10000 nM. For orientation: melting point means the temperature of the solid-liquid transition. On to `O=C(NC1c2ccccc2-c2c(-c3cc4ccccc4o3)cccc21)c1ccnc2[nH]ccc12` (racemic) [Example 2, [4-(benzofuran-2-yl)-9H-fluoren-9(R,S)-yl)]-amide of 1H-pyrrolo[2,3-b]pyridine-4-carboxylic acid], for which the melting point is > 260 °C. This compound displayed an IC50 against Hsp82 of 1000 to 10000 nM.

Turning to `O=C(NC1c2ccccc2-c2c(-c3cnc4ccccc4c3)cccc21)c1ccnc2[nH]ccc12` (racemic) [Example 3, [4-(quinolin-3-yl)-9H-fluoren-9(R,S)-yl)]-amide of 1H-pyrrolo[2,3-b]pyridine-4-carboxylic acid], the melting point is > 260 °C. On Hsp82, this compound came in with an IC50 of 1000 to 10000 nM.

For the compound `O=C(NC1c2ccccc2-c2c(-c3ccc(F)nc3)cccc21)c1ccnc2[nH]ccc12` (racemic) [Example 4, [4-(6-fluoro-pyridin-3-yl)-9H-fluoren-9-(R,S)-yl]-amide of 1H-pyrrolo[2,3-b]pyridine-4-carboxylic acid], the melting point was > 260 °C. On Hsp82, the concentration for half-maximal inhibition (IC50) fell in the range of 1000 to 10000 nM.

As to `O=C(NC1c2ccccc2-c2c(-c3cc4ccccc4[nH]3)cccc21)c1ccnc2[nH]ccc12` (racemic) [Example 5, [4-(1H-indol-2-yl)-9H-fluoren-9-(R,S)-yl]-amide of 1H-pyrrolo[2,3-b]pyridine-4-carboxylic acid], the half-maximal inhibitory concentration (IC50) against Hsp82 was < 1000 nM. Regarding `O=C(NC1c2ccccc2-c2c(-c3nc4ccccc4o3)cccc21)c1ccnc2[nH]ccc12` (racemic) [Example 6, [4-(benzoxazol-2-yl)-9H-fluoren-9-(R,S)-yl]-amide of 1H-pyrrolo[2,3-b]pyridine-4-carboxylic acid], the melting point was > 260 °C. In addition, on Hsp82, the IC50 was < 1000 nM. For `O=C(NC1c2ccccc2-c2c(-c3cncnc3)cccc21)c1ccnc2[nH]ccc12` (racemic) [Example 7, [4-(pyrimidin-5-yl)-9H-fluoren-9-(R,S)yl]-amide of 1H-pyrrolo[2,3-b]pyridine-4-carboxylic acid], the melting point was > 260 °C. Besides, at Hsp82, the IC50 is < 1000 nM. Compound `O=C(NC1c2ccccc2-c2c(-c3ccc4ccccc4n3)cccc21)c1ccnc2[nH]ccc12` (racemic) [Example 8, [4-(quinolin-2-yl)-9H-fluoren-9-(R,S)-yl]-amide of 1H-pyrrolo[2,3-b]pyridine-4-carboxylic acid] yielded a melting point of 260 °C. In addition, the concentration for half-maximal inhibition (IC50) against Hsp82 lay within 1000 to 10000 nM. At Hsp82, `O=C(NC1c2ccccc2-c2c(-c3nc4ccccn4n3)cccc21)c1ccnc2[nH]ccc12` (racemic) [Example 9, (4-[1.2.4]triazolo[1,5-a]pyridin-2-yl-9H-fluoren-9(R,S)-yl)-amide of 1H-pyrrolo[2,3-b]pyridine-4-carboxylic acid] returned an IC50 of 1000 to 10000 nM. Regarding `O=C(NC1c2ccccc2-c2c(C3=Nc4ccccc4OC3)cccc21)c1ccnc2[nH]ccc12` (racemic) [Example 10, [4-(1,4-benzoxazin-2H-3-yl)-9H-fluoren-9(R,S)-yl]-amide of 1H-pyrrolo[2,3-b]pyridine-4-carboxylic acid], on Hsp82, the IC50 fell in the range of 1000 to 10000 nM. Turning to `O=C(NC1c2ccccc2-c2c(-c3cnc4ccccc4c3)cccc21)c1ncnc2[nH]ccc12` (racemic) [Example 11, [4-(quinolin-3-yl)-9H-fluoren-9(R,S)-yl]-amide of 7H-pyrrolo[2,3-c]pyrimidine-4-carboxylic acid], at Hsp82, the IC50 was < 1000 nM. Turning to `O=C(NC1c2ccccc2-c2c(-c3cnc4ccccc4n3)cccc21)c1ccnc2[nH]ccc12` (racemic) [Example 12, [4-(quinoxalin-2-yl)-9H-fluoren-9(R,S)-yl]-amide of 1H-pyrrolo[2,3-b]pyridine-4-carboxylic acid], the IC50 at Hsp82 fell in the range of 1000 to 10000 nM. With `O=C(NC1c2ccccc2-c2c(-c3cnc4ccccc4c3)cccc21)c1c(Br)cnc2[nH]cnc12` (racemic) [Example 13, [4-(quinolin-3-yl)-9H-fluoren-9(R,S)-yl]-amide of 6-bromo-3H-imidazo[4,5-b]pyridine-7-carboxylic acid], the half-inhibitory concentration (IC50) against Hsp82 is < 1000 nM.

On to `O=C(NC1c2ccccc2-c2c(-c3ccc(N4CCOCC4)nc3)cccc21)c1ccnc2[nH]ccc12` (racemic) [Example 14, [4-(2-morpholino-pyridin-5-yl)-9H-fluoren-9(R,S)-yl]-amide of 1H-pyrrolo[2,3-b]pyridine-4-carboxylic acid], for which, at Hsp82, the IC50 was 1000 to 10000 nM. For the compound `Nc1ncc(Cl)c(C(=O)NC2c3ccccc3-c3c(-c4cnc5ccccc5c4)cccc32)n1` (racemic) [Example 15, [4-(quinolin-3-yl)-9H-fluoren-9(R,S)-yl]-amide of 2-amino-5-chloro-pyrimidine-4-carboxylic acid], at Hsp82, the IC50 is < 1000 nM. In the case of `O=C(NC1c2ccccc2-c2c(C(=O)n3ncc4ccccc43)cccc21)c1ccnc2[nH]ccc12` (racemic) [Example 16, [4-(indazole-1-carbonyl)-9H-fluoren-9(R,S)-yl]-amide of 1H-pyrrolo[2,3-b]pyridine-4-carboxylic acid], the melting point worked out at 220 °C. The compound further registered an IC50 against Hsp82 of 1000 to 10000 nM. In the case of `O=C(NC1c2ccccc2-c2c(-c3cnc4[nH]ccc4c3)cccc21)c1ccnc2[nH]ccc12` (racemic) [Example 17, [4-(1H-pyrrolo[2,3-b]pyridin-5-yl)-9H-fluoren-9(R,S)-yl]-amide of 1H-pyrrolo[2,3-b]pyridine-4-carboxylic acid], on Hsp82, the IC50 is < 1000 nM. On to `O=C(NC1c2ccccc2-c2c(-c3cnc4c(c3)CCCN4)cccc21)c1ccnc2[nH]ccc12` (racemic) [Example 18, [4-(5,6,7,8-tetrahydro-1,8-naphthyridin-3-yl)-9H-fluoren-9(R,S)-yl]-amide of 1H-pyrrolo[2,3-b]pyridine-4-carboxylic acid], for which the half-maximal inhibitory concentration (IC50) against Hsp82 was in the range of 1000 to 10000 nM.

`O=C(NC1c2ccccc2-c2c(-c3cn4ccccc4n3)cccc21)c1ccnc2[nH]ccc12` (racemic) [Example 19, 4-{imidazo[1,2-a]pyridin-2-yl}-9H-fluoren-9-(R,S)-yl-amide of 1H-pyrrolo[2,3-b]pyridine-4-carboxylic acid] came in with a melting point of 270 °C. Further, the IC50 against Hsp82 is < 1000 nM. Consider `O=C(NC1c2ccccc2-c2c(-c3cnc4ccccc4c3)cccc21)c1c(Br)cnc2[nH]cnc12` (single isomer, unassigned) [Example 20], for which the concentration for half-maximal inhibition (IC50) against Hsp82 is 10000 to 100000 nM. Take `O=C(NC1c2ccccc2-c2c(-c3cnc4ccccc4c3)cccc21)c1c(Br)cnc2[nH]cnc12` (single isomer, unassigned) [Example 21]: at Hsp82, the half-maximal inhibitory concentration (IC50) is < 1000 nM.

(Values after patent US8163750B2, “Fluorene derivatives, compositions containing the same and use thereof as inhibitors of the protein chaperone HSP 90” (Sanofi-Aventis, priority 2006, dated 2012).)
